Test results taken from patent US10457655B2, “Compounds and compositions for inhibition of FASN” (FORMA Therapeutics, Inc., priority 2013, dated 2019).

molecular target: FASN enzyme (Homo sapiens, UniProt P49327); assay: Enzymatic Assay for FASN Inhibitors; type: biochemical; details: not given
Summary of the method: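 40 nM FASN preincubated with compound 60 min at 25° C in HEPES pH 7.3 buffer with 0.04% Triton X-100. Then 20 μM acetyl-CoA, 60 μM malonyl-CoA and 100 μM NADPH added for 90 min, quenched with CPM thiol probe; fluorescence 360/530 nm, IC50 by four-parameter fit.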

Sequence of FASN enzyme (P49327 whole entry): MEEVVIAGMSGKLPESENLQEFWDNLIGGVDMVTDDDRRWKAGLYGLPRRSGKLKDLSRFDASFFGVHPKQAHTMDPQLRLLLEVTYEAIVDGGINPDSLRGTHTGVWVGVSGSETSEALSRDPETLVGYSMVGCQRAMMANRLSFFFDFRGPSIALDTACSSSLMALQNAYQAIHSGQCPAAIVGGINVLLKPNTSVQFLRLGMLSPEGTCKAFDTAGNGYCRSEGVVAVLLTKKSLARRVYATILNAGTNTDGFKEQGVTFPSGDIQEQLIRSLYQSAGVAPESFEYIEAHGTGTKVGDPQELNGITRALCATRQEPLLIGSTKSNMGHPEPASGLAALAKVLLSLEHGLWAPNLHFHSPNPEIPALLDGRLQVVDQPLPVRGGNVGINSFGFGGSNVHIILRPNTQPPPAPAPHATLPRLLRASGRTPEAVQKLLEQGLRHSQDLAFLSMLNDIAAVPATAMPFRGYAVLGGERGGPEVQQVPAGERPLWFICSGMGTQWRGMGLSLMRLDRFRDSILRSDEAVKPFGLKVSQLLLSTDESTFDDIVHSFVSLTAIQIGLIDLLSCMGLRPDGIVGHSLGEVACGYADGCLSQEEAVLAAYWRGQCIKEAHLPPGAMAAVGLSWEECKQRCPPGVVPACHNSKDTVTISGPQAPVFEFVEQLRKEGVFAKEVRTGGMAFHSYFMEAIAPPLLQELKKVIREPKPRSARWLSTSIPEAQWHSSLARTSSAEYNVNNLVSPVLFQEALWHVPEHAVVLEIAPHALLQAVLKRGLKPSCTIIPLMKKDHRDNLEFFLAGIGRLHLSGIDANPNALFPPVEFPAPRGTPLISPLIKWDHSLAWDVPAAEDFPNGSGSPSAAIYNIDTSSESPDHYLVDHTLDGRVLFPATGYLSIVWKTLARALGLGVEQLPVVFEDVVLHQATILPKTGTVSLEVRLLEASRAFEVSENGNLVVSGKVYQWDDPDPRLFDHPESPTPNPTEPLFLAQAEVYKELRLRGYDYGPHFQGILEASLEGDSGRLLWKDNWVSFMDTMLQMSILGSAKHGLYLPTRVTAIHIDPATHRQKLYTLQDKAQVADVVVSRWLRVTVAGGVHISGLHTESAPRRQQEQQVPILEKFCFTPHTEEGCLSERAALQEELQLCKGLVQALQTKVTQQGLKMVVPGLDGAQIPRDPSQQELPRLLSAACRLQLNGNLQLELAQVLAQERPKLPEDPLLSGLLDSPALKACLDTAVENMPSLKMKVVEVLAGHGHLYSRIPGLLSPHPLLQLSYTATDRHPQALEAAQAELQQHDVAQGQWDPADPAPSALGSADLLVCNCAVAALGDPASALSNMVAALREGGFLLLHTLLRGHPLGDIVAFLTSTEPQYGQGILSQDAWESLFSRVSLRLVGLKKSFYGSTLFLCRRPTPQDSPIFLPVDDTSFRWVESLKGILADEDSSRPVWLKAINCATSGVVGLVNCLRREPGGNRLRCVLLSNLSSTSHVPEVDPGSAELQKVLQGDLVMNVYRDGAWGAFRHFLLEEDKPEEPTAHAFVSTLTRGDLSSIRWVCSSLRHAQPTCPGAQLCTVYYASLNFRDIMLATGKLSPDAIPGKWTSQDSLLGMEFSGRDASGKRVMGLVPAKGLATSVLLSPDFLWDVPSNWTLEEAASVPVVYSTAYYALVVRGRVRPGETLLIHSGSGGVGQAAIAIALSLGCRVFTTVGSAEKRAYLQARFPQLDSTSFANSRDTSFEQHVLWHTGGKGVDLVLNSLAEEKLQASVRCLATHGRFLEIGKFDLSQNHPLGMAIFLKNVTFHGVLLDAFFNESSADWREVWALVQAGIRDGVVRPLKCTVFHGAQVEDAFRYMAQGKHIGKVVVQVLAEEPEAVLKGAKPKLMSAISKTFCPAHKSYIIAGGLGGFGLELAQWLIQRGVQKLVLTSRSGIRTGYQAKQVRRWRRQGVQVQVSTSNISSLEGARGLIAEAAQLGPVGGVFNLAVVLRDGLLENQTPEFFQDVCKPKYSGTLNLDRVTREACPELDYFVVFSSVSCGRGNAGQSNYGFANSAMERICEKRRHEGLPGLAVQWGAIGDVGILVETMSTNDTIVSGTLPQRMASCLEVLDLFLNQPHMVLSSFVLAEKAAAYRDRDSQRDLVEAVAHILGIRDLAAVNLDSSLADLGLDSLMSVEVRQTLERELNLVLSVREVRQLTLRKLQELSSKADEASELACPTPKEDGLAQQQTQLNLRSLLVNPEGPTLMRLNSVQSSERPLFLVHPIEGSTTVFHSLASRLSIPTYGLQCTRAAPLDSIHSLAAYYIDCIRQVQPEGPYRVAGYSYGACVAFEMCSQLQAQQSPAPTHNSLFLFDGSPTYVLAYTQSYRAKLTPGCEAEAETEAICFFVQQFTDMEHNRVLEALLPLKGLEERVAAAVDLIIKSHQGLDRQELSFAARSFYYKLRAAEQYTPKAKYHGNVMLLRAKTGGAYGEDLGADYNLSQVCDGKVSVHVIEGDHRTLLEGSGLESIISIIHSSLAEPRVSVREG

Row | Compound | IC50 [µM]
1 | Cn1ncc2ccc(-c3ccc(C(=O)N4CCN(C(=O)C5(N)CC5)CC4)cc3)cc21 | < 0.5
2 | N#CC1(c2cccc(-c3ccc(C(=O)N4CCN(C(=O)C5(O)CC5)CC4)c(F)c3)c2)CC1 [1-(3-{3-fluoro-4-[4-(1-hydroxycyclopropanecarbonyl)piperazine-1-carbonyl]phenyl}phenyl)cyclopropane-1-carbonitrile] | < 0.5
3 | COc1ccc2nc(-c3ccc(C(=O)N4CCN(C(=O)C5(O)CC5)CC4)c(F)c3F)ccc2c1 [1-[(4-{[2,3-difluoro-4-(6-methoxyquinolin-2-yl)phenyl]carbonyl}piperazin-1-yl)carbonyl]cyclopropan-1-ol] | < 0.5
4 | Cn1cc(-c2ccc(-c3ccc(C(=O)N4CCN(C(=O)C5(O)CC5)CC4)cc3)cc2)cn1 [1-(4-{4-[4-(1-methyl-1H-pyrazol-4-yl)phenyl]benzoyl}piperazine-1-carbonyl)cyclopropan-1-ol] | < 0.5
5 | NC1(C(=O)N2CCN(C(=O)c3ccc(-c4n[nH]c5c(F)cccc45)cc3F)CC2)CC1 | < 0.5
6 | O=C(c1ccc(N2CCc3c([nH]c4ccccc34)C2)cc1)N1CCN(C(=O)C2(O)CC2)CC1 [1-[4-(4-{1H,2H,3H,4H,9H-pyrido[3,4-b]indol-2-yl}benzoyl)piperazine-1-carbonyl]cyclopropan-1-ol] | < 0.5
7 | O=C(c1ccc(-c2nc3ccccn3c2Cl)cc1Cl)N1CCN(C(=O)C2(O)CC2)CC1 [1-[4-(2-chloro-4-{3-chloroimidazo[1,2-a]pyridin-2-yl}benzoyl)piperazine-1-carbonyl]cyclopropan-1-ol] | < 0.5

Results, then the molecule that gave them:

Row | IC50 [µM] | Compound
8 | < 0.5 | O=C(c1ccc(-c2cccc(S(=O)(=O)NC3CC3)c2)cc1Cl)N1CCN(C(=O)C2(O)CC2)CC1 [3-[3-chloro-4-({4-[(1-hydroxycyclopropyl)carbonyl]piperazin-1-yl}carbonyl)phenyl]-N-cyclopropylbenzene-1-sulfonamide]
9 | < 0.5 | CS(=O)(=O)n1ccc2ccc(-c3ccc(C(=O)N4CCN(C(=O)C5(O)CC5)CC4)cc3)cc21 [1-{4-[4-(1-methanesulfonyl-1H-indol-6-yl)benzoyl]piperazine-1-carbonyl}cyclopropan-1-ol]
10 | < 0.5 | N#CC1(c2cccc(-c3ccc(C(=O)N4CCN(C(=O)C5(O)CC5)CC4)cc3)c2)CCOCC1 [4-(3-{4-[4-(1-hydroxycyclopropanecarbonyl)piperazine-1-carbonyl]phenyl}phenyl)oxane-4-carbonitrile]
11 | < 0.5 | O=C(c1ccc(-c2nc3ccc(Cl)cc3o2)c(F)c1)N1CCN(C(=O)C2(O)CC2)CC1 [1-{4-[4-(6-chloro-1,3-benzoxazol-2-yl)-3-fluorobenzoyl]piperazine-1-carbonyl}cyclopropan-1-ol]
12 | < 0.5 | Cn1ncc2ccc(-c3ccc(C(=O)N4CCN(C(=O)C5(O)CC5)CC4)cc3F)cc21 [1-{4-[3-fluoro-4-(1-methyl-1H-indazol-6-yl)benzoyl]piperazine-1-carbonyl}cyclopropan-1-ol]
13 | < 0.5 | O=C(c1ccc(N2Cc3cccc(F)c3C2)cc1)N1CCN(C(=O)C2(O)CC2)CC1 [1-{4-[4-(4-fluoro-2,3-dihydro-1H-isoindol-2-yl)benzoyl]piperazine-1-carbonyl}cyclopropan-1-ol]
14 | < 0.5 | Cn1cnc2cc(-c3ccc(C(=O)N4CCN(C(=O)C5(O)CC5)CC45CC5)cc3)ccc21 [1-{4-[4-(1-methyl-1H-1,3-benzodiazol-5-yl)benzoyl]-4,7-diazaspiro[2.5]octane-7-carbonyl}cyclopropan-1-ol]
15 | < 0.5 | Cn1ncc2ccc(-c3ccc(C(=O)N4CCN(C(=O)C5(N)CC5)CC4)c(F)c3)cc21 [1-{4-[2-fluoro-4-(1-methyl-1H-indazol-6-yl)benzoyl]piperazine-1-carbonyl}cyclopropan-1-amine]
16 | < 0.5 | CC(C)OC(=O)Nc1cccc(-c2ccc(C(=O)N3CCN(C(=O)C4(O)CC4)CC3)cc2)c1 [propan-2-yl N-(3-{4-[4-(1-hydroxycyclopropanecarbonyl)piperazine-1-carbonyl]phenyl}phenyl)carbamate]
17 | < 0.5 | Cc1nn(C)c2ccc(-c3ccc(C(=O)N4CCN(C(=O)C5(N)CC5)CC4)c(F)c3)cc12 [1-{4-[4-(1,3-dimethyl-1H-indazol-5-yl)-2-fluorobenzoyl]piperazine-1-carbonyl}cyclopropan-1-amine]
18 | < 0.5 | CNC(=O)COc1cccc(-c2ccc(C(=O)N3CCN(C(=O)C4(O)CC4)CC3)cc2)c1 [2-(3-{4-[4-(1-hydroxycyclopropanecarbonyl)piperazine-1-carbonyl]phenyl}phenoxy)-N-methylacetamide]
19 | < 0.5 | O=C(c1ccc(-c2cccc(NS(=O)(=O)CCC(F)(F)F)c2)cc1)N1CCN(C(=O)C2(O)CC2)CC1 [3,3,3-trifluoro-N-(3-{4-[4-(1-hydroxycyclopropanecarbonyl)piperazine-1-carbonyl]phenyl}phenyl)propane-1-sulfonamide]
20 | < 0.5 | N#Cc1ccc2oc(-c3ccc(C(=O)N4CCN(C(=O)C5(O)CC5)CC4)cc3)nc2c1 [2-[4-({4-[(1-hydroxycyclopropyl)carbonyl]piperazin-1-yl}carbonyl)phenyl]-1,3-benzoxazole-5-carbonitrile]

same assay, conditions: FASN enzymatic assay; Table 2-2

Row | Compound | IC50 [µM]
21 | O=C(c1ccc(-c2nc3c(Cl)cccc3[nH]2)cc1)N1CCN(C(=O)C2(O)CC2)CC1 [1-[(4-{[4-(4-chloro-1H-1,3-benzodiazol-2-yl)phenyl]carbonyl}piperazin-1-yl)carbonyl]cyclopropan-1-ol] | 0.5 to 5
22 | COc1ccc2cc(-c3ccc(C(=O)N4CCN(C(=O)C5(O)CC5)CC4)cn3)ccc2n1 [1-[(4-{[6-(2-methoxyquinolin-6-yl)pyridin-3-yl]carbonyl}piperazin-1-yl)carbonyl]cyclopropan-1-ol] | 0.5 to 5
23 | O=C(c1cnc(-c2cnc3ccccc3c2)cn1)N1CCN(C(=O)C2(O)CC2)CC1 [1-[(4-{[5-(quinolin-3-yl)pyrazin-2-yl]carbonyl}piperazin-1-yl)carbonyl]cyclopropan-1-ol] | 0.5 to 5

Further lines, results first:

Row | IC50 [µM] | Compound
24 | 0.5 to 5 | O=C(c1ccc(-c2ccc3nc(C(F)(F)F)cn3c2)cc1)N1CCN(C(=O)C2(O)CC2)CC1 [1-{[4-({4-[2-(trifluoromethyl)imidazo[1,2-a]pyridin-6-yl]phenyl}carbonyl)piperazin-1-yl]carbonyl}cyclopropan-1-ol]
25 | 0.5 to 5 | CC(C)NC(=O)c1ccc(F)c(-c2ccc(C(=O)N3CCN(C(=O)C4(O)CC4)CC3)cc2)c1 [4-fluoro-3-[4-({4-[(1-hydroxycyclopropyl)carbonyl]piperazin-1-yl}carbonyl)phenyl]-N-(propan-2-yl)benzamide]

same assay, conditions: FASN enzymatic assay; Table 2-3

Row | IC50 [µM] | Compound
26 | ≥ 5 | O=C(c1cn2cc(-c3ccc(F)cc3)ccc2n1)N1CCN(C(=O)C2(O)CC2)CC1 [1-[(4-{[6-(4-fluorophenyl)imidazo[1,2-a]pyridin-2-yl]carbonyl}piperazin-1-yl)carbonyl]cyclopropan-1-ol]
27 | ≥ 5 | O=C(c1ccc(-c2cc(F)ccc2F)cc1)N1CCN(C(=O)C2(O)CC2)CC1 [1-[(4-{[4-(2,5-difluorophenyl)phenyl]carbonyl}piperazin-1-yl)carbonyl]cyclopropan-1-ol]
28 | ≥ 5 | O=C(c1cccc(Oc2ccccc2)c1)N1CCN(C(=O)C2(O)CC2)CC1 [1-({4-[(3-phenoxyphenyl)carbonyl]piperazin-1-yl}carbonyl)cyclopropan-1-ol]
29 | ≥ 5 | COc1c(F)cccc1-c1ccc(C(=O)N2CCN(C(=O)C3(O)CC3)CC2)cc1 [1-[(4-{[4-(3-fluoro-2-methoxyphenyl)phenyl]carbonyl}piperazin-1-yl)carbonyl]cyclopropan-1-ol]
